Data on 72 compounds can be found in PubChem BioAssay AID179 (DTP/NCI, 2004).

Active and inactive are the calls of the source.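 How the source made its calls: active means compounds giving half or more protection of infected cells from virus-caused growth loss, again on retest; inactive means the rest.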 Where a SMILES comes first, the peptide text is derived from it. [ ]: non-standard residue; d: D form. The star is where a group is joined. Phe(4-NO2) = N[CH](Cc1ccc([N+](=O)[O-])cc1)C(=O)O; Boc = CC(C)(C)OC(=O)*; OBn = c1ccc(CO*)cc1

This experiment concerns CEM cells HIV-1 protection, formazan growth assay. As to the kind of experiment: NCI AIDS Antiviral Assay. Particulars: for IC50: measured here: growth of uninfected CEM cells. The gist of the method:
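Five concentrations of each compound were applied to infected and uninfected human CEM cells. Protection from HIV-1 was judged from growth measured with a soluble formazan assay.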

In general, EC50 refers to the concentration that produces a half-maximal response. As usually defined, the IC50 is the midpoint of a concentration-inhibition curve. Read a high IC50 as weaker potency in that assay. For the compound `COC(=O)C1CC23CCCN4CCC5(c6ccccc6N(C=O)C15CC2)C43` (configuration not stated), the EC50 was over 70.8 µM and the IC50 was over 70.8 µM.

`CC(=O)NCCC1CN(C(=O)/C=C/I)c2ccccc21` (configuration not stated): the EC50 was over 200 µM and the IC50 worked out at 1.1 µM.

As for `COc1ccc(Nc2nc3c(N)cc(C(F)(F)F)cc3nc2-c2ccccc2)cc1OC`, the EC50 is over 16.2 µM and the IC50 is over 16.2 µM.

As to `Cc1cccc(NC(=O)/C(=N\N)C(c2cnc3ccc([N+](=O)[O-])cc3n2)[N+](=O)[O-])c1C` (configuration not stated), the EC50 is over 85.1 µM and the IC50 worked out at 66.1 µM.

With `O=C1CCC(C(Sc2ccccc2)(Sc2ccccc2)Sc2ccccc2)C1` (configuration not stated), the EC50 was over 200 µM and the IC50 was 38.9 µM.

With `C1CN1c1nc(N2CC2)nc(N2CC2)n1`, the EC50 is over 91.2 µM and the IC50 came out at 1.05 µM.

Take `CCOc1ccc(N=Nc2ccc3cc(/C(C)=N/NC(=O)/C(C#N)=C\c4ccc(N(CCC#N)CCC#N)cc4)c(=O)oc3c2)cc1`: the EC50 was over 200 µM and the IC50 is over 200 µM.

With `O=C1C2C3SC(c4cc5ccccc5cc43)C2C(=O)N1c1ccccc1` (configuration not stated), the result was inactive.

Regarding `CCOC(=O)CCC(NC(=O)OCc1ccccc1)C(=O)NC(CCC(=O)OCC)C(=O)NC(CCC(=O)OCC)C(=O)NC(CCC(=O)OCC)C(=O)NC(CCC(=O)OCC)C(=O)NC(CCC(=O)OCC)C(=O)NC(CCC(=O)OCC)C(=O)OCC` (configuration not stated), the EC50 was over 100 µM and the IC50 amounted to 30.2 µM.

For the compound `COC(=O)C1=CC2C=CC(C1C(=O)OC)C1C(C(=O)OC)=C(C(=O)OC)C(C(=O)OC)=C(C(=O)OC)C21OC` (configuration not stated), the outcome was inactive.

For the compound `COc1cc(OC)c(/C=C\c2ccnc3ccccc23)c(OC)c1`, the EC50 is over 200 µM and the IC50 came out at 8.51 µM.

For the compound `O=C(NN1C(=O)C(Cl)C1c1ccccc1Cl)c1ccccc1O` (configuration not stated), the EC50 was over 14.8 µM and the IC50 was over 14.8 µM.

For `COC(=O)CCc1ccc2c(c1)CC1(C2)Cc2ccc3c(c2C1)CCC3` (configuration not stated), the EC50 is over 200 µM and the IC50 was over 200 µM.

As to `CC1SCc2nc3ccccc3n21` (configuration not stated), the EC50 is over 200 µM and the IC50 was over 200 µM.

On to `Cc1cn(C2CC(O[Si](C)(C)C(C)(C)C)C(CN(O)C(N)=O)O2)c(=O)[nH]c1=O` (configuration not stated), for which the EC50 is over 200 µM and the IC50 is over 200 µM.

In the case of `Cc1nc(N)nc(N)c1N1CCN(Cc2ccccc2)CC1`, the EC50 was over 200 µM and the IC50 was 6.92 µM.

Regarding `CC(=O)/C(=C/c1ccc([N+](=O)[O-])cc1)C(=O)c1ccccc1`, the EC50 is over 87.1 µM and the IC50 was determined as 16.6 µM.

As to `Cc1cc(C)c(-c2c(O)c(O)c(-c3ccccc3)c3ccccc23)c(C)c1`, the EC50 was over 200 µM and the IC50 was determined as 7.76 µM.

Consider `N#C/C(=C/c1cccc2ccccc12)C(=O)c1ccccc1`, for which the EC50 is over 13.2 µM and the IC50 was over 13.2 µM.

Turning to `Nc1ccc2c3c(ccc([N+](=O)[O-])c13)CC2`, the EC50 is over 200 µM and the IC50 came out at 102 µM.

As for `Cn1c2cccc3nnc4cccc(c4c32)n1C`, the outcome was inactive.

For the compound `CC1(C)SC2c3ccccc3C(=O)N2C1C(=O)O` (configuration not stated), the EC50 was over 955 µM and the IC50 was over 955 µM.

With `N#C/C(=C\c1ccccc1[N+](=O)[O-])C(=O)O`, the EC50 is over 603 µM and the IC50 was 363 µM.

In the case of `O=C(CC(c1ccccc1)C(Sc1ccccc1)(Sc1ccccc1)Sc1ccccc1)c1ccccc1` (configuration not stated), the EC50 was over 100 µM and the IC50 is over 100 µM.

On to `Clc1ccc(C(c2ccccc2Cl)C(Cl)Cl)cc1` (configuration not stated), for which the EC50 was over 200 µM and the IC50 stood at 61.7 µM.

With `Cc1nc2ccccn2c1N=Nc1ccc(C(=O)NN)cc1`, the EC50 is over 33.9 µM and the IC50 is over 33.9 µM.

In the case of `Cc1ccc(S(=O)(=O)NC(CCC(=O)NN)C(=O)NN)cc1` (configuration not stated), the EC50 is over 200 µM and the IC50 is over 200 µM.

For `COc1ccc2c(ccc3[nH]c4c(C)cnc(NCCCN(C)C)c4c32)c1`, the EC50 was over 2 µM and the IC50 amounted to 0.132 µM.

`COc1ccccc1-c1cc(B(O)O)ccc1OC`: the EC50 is over 200 µM and the IC50 was found to be 40.7 µM.

`COc1ccccc1S(=O)(=O)Sc1ccccc1[N+](=O)[O-]`: the EC50 is over 81.3 µM and the IC50 came out at 25.7 µM.

Consider `Nc1ncnc2c1ncn2C1COC(CO)C1CO` (configuration not stated), for which the EC50 was 87.1 µM and the IC50 is over 200 µM.

Consider `O=c1[nH]nc(Cc2ccccc2)n1/N=C/c1c(O)ccc2ccccc12`, for which the EC50 is 40.7 µM and the IC50 was 174 µM.

Take `Cc1ccc(Oc2ccc(C(=O)c3cccc(C(=O)c4ccc(Oc5ccc(C)cc5)cc4)n3)cc2)cc1`: the EC50 was over 3.8 µM and the IC50 was over 3.8 µM.

As for `CCOC(=O)NC(Nc1ncccn1)(C(F)(F)F)C(F)(F)F`, the concentration giving a half-maximal response (EC50) was over 191 µM and the IC50 stood at 186 µM.

`O=C(c1ccccc1)c1c2ccccn2c2cccc[n+]12`: the EC50 was over 200 µM and the IC50 amounted to 53.7 µM.

For `CC1C(=O)CC[C@@]2(C)C(=O)CCCC12O` (some centres not stated), the outcome was inactive.

Consider `Oc1ccc(S)cc1CNC1CCCCC1`, for which the EC50 is over 200 µM and the IC50 was 13.2 µM.

On to `c1ccc2sc(SCN3CCCCC3)nc2c1`, for which the EC50 is over 200 µM and the concentration for half-maximal inhibition (IC50) stood at 81.3 µM.

In the case of `COc1ccccc1OC(=O)/C=C/c1ccccc1`, the EC50 was over 200 µM and the IC50 came to 3.72 µM.

On to `CC1=C(C(=O)NCCc2ccccc2)CC(C(=O)NCCc2ccccc2)=C(C)N1`, for which the EC50 was over 200 µM and the IC50 stood at 123 µM.

On to `COC(=O)CCC(NC(=O)OC(C)(C)C)C(=O)NC(Cc1ccc([N+](=O)[O-])cc1)C(=O)NCC(=O)OCc1ccccc1` (configuration not stated) (Boc-Glu(OMe)-[Phe(4-NO2)]-Gly-OBn; configuration not given here), for which the EC50 was over 200 µM and the IC50 was over 200 µM.

For the compound `COc1ccccc1NC(=O)/C(C=NC(=S)C(N)=S)=C(\C)O`, the outcome was inactive.

In the case of `COC(=O)C1(COCc2ccccc2)CCCC2OC21` (configuration not stated), the outcome was inactive.

On to `CCc1cccc(C(C)C)c1N1C(=O)C(=O)C(c2nc3ccccc3s2)C(=O)C1=O`, for which the EC50 is over 17.4 µM and the IC50 was over 17.4 µM.

With `COC(=O)c1ccc(N2CCOS(=O)OCC2)cc1OC(=O)c1ccccc1`, the EC50 is over 200 µM and the IC50 was 33.1 µM.

`O=c1oc2ccccc2c2c1Sc1ccccc1N2`: the EC50 was over 51.3 µM and the IC50 was over 51.3 µM.

In the case of `Cc1cn(C2CC3C(COC(C)(C)N3O)O2)c(=O)[nH]c1=O` (configuration not stated), the EC50 is 7.76 µM and the IC50 was over 200 µM.

`CN(C)CCN1CCC(Cc2ccccc2)CC1`: the EC50 is over 200 µM and the IC50 came out at 72.4 µM.

Turning to `CC(=O)Oc1cccc2c1C(=O)C1CC(O)C(O)C3OC(C)(C)OC2(C)C13` (configuration not stated), the EC50 was over 468 µM and the IC50 is over 468 µM.

For the compound `CC(=O)O[C@H]1C[C@@H]2OC3C=C(C)CCC3(C)[C@@]1(C)[C@@]21CO1` (some centres not stated), the EC50 is over 2 µM and the IC50 is 0.105 µM.

On to `COc1ccccc1/C=C1\C=Cc2ccccc21`, for which the EC50 was over 204 µM and the IC50 is 31.6 µM.

Regarding `COC(=O)c1cc(C#N)[nH]c1-c1ccc(Br)s1`, the EC50 was over 200 µM and the half-inhibitory concentration (IC50) was 4.37 µM.

On to `Nc1ncnc2c1ncn2C(Cl)=C(Cl)Cl`, for which the EC50 is over 200 µM and the IC50 is 115 µM.

As to `Cc1ccc(NC(=O)c2c(NC(=O)CN3CCOCC3)c(C#N)c3n2CCC3)cc1`, the EC50 is over 200 µM and the IC50 was over 200 µM.

Take `CC1(C)NC(=O)[C@]2(C[C@@H](OC(=O)c3ccccc3)C=C2C=O)O1`: the EC50 was over 200 µM and the IC50 was 2.45 µM.

`Cc1ccc(/C(O)=C/C(=O)C(=O)NC23CC4CC(CC(C4)C2)C3)cc1`: the EC50 was over 200 µM and the IC50 stood at 77.6 µM.

For the compound `COC(=O)C1CCC(=O)N1CN(C(C)=O)c1cc(OC)ccc1OC` (configuration not stated), the EC50 is over 200 µM and the IC50 was over 200 µM.

As for `O=C1Nc2ccccc2/C1=N\[O-].O=C1Nc2ccccc2/C1=N\[O-].[Cu+2]`, the EC50 is over 200 µM and the IC50 was over 200 µM.

Take `CN(C)CCc1ccnc2nc(-c3ccc4ccccc4c3)cn12`: the EC50 is over 200 µM and the IC50 is 32.4 µM.

Take `NC(CSS(=O)(=O)O)=NCCc1ccccc1`: the EC50 is over 200 µM and the 50% inhibitory concentration (IC50) worked out at 110 µM.

For `O=c1[nH][nH]c(=O)c2c1nc(SCc1ccc(Br)cc1)n2Cc1ccccc1`, the EC50 is over 214 µM and the IC50 is over 214 µM.

Take `C[C@@H](c1ccccc1)n1c(N)c(C#N)c2ccc([N+](=O)[O-])cc2c1=O`: the EC50 was over 200 µM and the IC50 was 12.3 µM.

With `C=C(C)C1CCC2(C)OC2C1` (configuration not stated), the EC50 is over 200 µM and the IC50 is over 200 µM.

With `CCN(CC)C(=O)N1CCN(C=S)CC1`, the EC50 is over 794 µM and the IC50 was over 794 µM.

Turning to `O=C(O)/C=C/c1ccccc1[N+](=O)[O-]`, the EC50 was over 257 µM and the IC50 was over 257 µM.

Turning to `COCCNC1CCC2(SCCS2)c2[nH]c3ccccc3c21` (configuration not stated), the EC50 was over 200 µM and the IC50 worked out at 39.8 µM.

Compound `Cc1cc(O)c(C=O)c2c1C(=O)Oc1c(COCO/C=C/C(=O)O)c(O)c(C(=O)O)c(C)c1O2` yielded an EC50 of 52.5 µM and an IC50 of 61.7 µM.

`O=c1[nH]c2ccccc2c(O)c1N=Nc1ccc(S(=O)(=O)O)cc1`: the EC50 is over 200 µM and the IC50 is over 200 µM.

On to `COc1ccc(C2=NC(c3ccccc3)N3C(c4ccccc4)NC(c4ccccc4)C2C3c2ccccc2)cc1` (configuration not stated), for which the outcome was inactive.

For `COC(=O)[C@@H]1C[C@]2(CC=C(C)C)c3ccccc3N(S(=O)(=O)c3ccccc3)[C@@H]2N1C(=O)OC`, the EC50 is over 200 µM and the IC50 was 20 µM.

On to `C=CCN1/C(=C2\SC(=S)N(c3ccc(C)cc3)C2=O)Sc2c1nc[nH]c2=O`, for which the EC50 was over 2.51 µM and the IC50 was over 2.51 µM.

Take `CCCS(=O)OC1C(C2COC(C)(C)O2)OC2OC(C)(C)OC21` (configuration not stated): the EC50 was over 200 µM and the IC50 turned out to be 95.5 µM.
